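1) Cells in 96-well plates. 2) Compound, 48 h, 5 concentrations. 3) Linear interpolation between surrounding doses. 4) Unreached endpoint = highest concentration. The concentration for full growth arrest is given as TGI.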
Columns and labels:
Test in all cases: inhibition of tumour cell growth, NCI panel, 48 h
RPMI-8226 leukemia = tested on: RPMI-8226 leukemia
IGROV1 ovarian = tested on: IGROV1 ovarian
CCRF-CEM leukemia = tested on: CCRF-CEM leukemia
UO-31 renal = tested on: UO-31 renal
K-562 leukemia = tested on: K-562 leukemia
SF-539 CNS = tested on: SF-539 CNS
A549 NSCLC = tested on: A549 NSCLC
HCC-2998 colon = tested on: HCC-2998 colon
SN12C renal = tested on: SN12C renal
UACC-257 melanoma = tested on: UACC-257 melanoma
OVCAR-8 ovarian = tested on: OVCAR-8 ovarian
SK-MEL-28 melanoma = tested on: SK-MEL-28 melanoma
HCT-15 colon = tested on: HCT-15 colon
KM12 colon = tested on: KM12 colon
786-0 renal = tested on: 786-0 renal
SF-268 CNS = tested on: SF-268 CNS
M19-MEL melanoma = tested on: M19-MEL melanoma
OVCAR-5 ovarian = tested on: OVCAR-5 ovarian
U251 CNS = tested on: U251 CNS
SNB-19 CNS = tested on: SNB-19 CNS
HCT-116 colon = tested on: HCT-116 colon
HOP-18 NSCLC = tested on: HOP-18 NSCLC
OVCAR-4 ovarian = tested on: OVCAR-4 ovarian
KM20L2 colon = tested on: KM20L2 colon
SK-OV-3 ovarian = tested on: SK-OV-3 ovarian
OVCAR-3 ovarian = tested on: OVCAR-3 ovarian
MOLT-4 leukemia = tested on: MOLT-4 leukemia
SK-MEL-2 melanoma = tested on: SK-MEL-2 melanoma
LXFL 529 NSCLC = tested on: LXFL 529 NSCLC
COLO 205 colon = tested on: COLO 205 colon
NCI-H460 lung = tested on: NCI-H460 lung
HT29 colon = tested on: HT29 colon
SNB-75 CNS = tested on: SNB-75 CNS
CAKI-1 renal = tested on: CAKI-1 renal
MALME-3M melanoma = tested on: MALME-3M melanoma
TK-10 renal = tested on: TK-10 renal
SNB-78 CNS = tested on: SNB-78 CNS
M14 melanoma = tested on: M14 melanoma
LOX IMVI melanoma = tested on: LOX IMVI melanoma
DMS 114 small cell lung = tested on: DMS 114 small cell lung
SK-MEL-5 melanoma = tested on: SK-MEL-5 melanoma
XF 498 CNS = tested on: XF 498 CNS
HOP-62 NSCLC = tested on: HOP-62 NSCLC
A498 renal = tested on: A498 renal
UACC-62 melanoma = tested on: UACC-62 melanoma
SW-620 colon = tested on: SW-620 colon
SF-295 CNS = tested on: SF-295 CNS
ACHN renal = tested on: ACHN renal
EKVX NSCLC = tested on: EKVX NSCLC
DLD-1 colon = tested on: DLD-1 colon
DMS 273 small cell lung = tested on: DMS 273 small cell lung
RXF 393 renal = tested on: RXF 393 renal
SR leukemia = tested on: SR leukemia
NCI-H23 lung = tested on: NCI-H23 lung
NCI-H226 lung = tested on: NCI-H226 lung
NCI-H522 lung = tested on: NCI-H522 lung
HL-60(TB) leukemia = tested on: HL-60(TB) leukemia
HOP-92 NSCLC = tested on: HOP-92 NSCLC

C[C@H](C(=O)O)C(=O)NC(=O)N(Cc1ccccc1)N=O showed a TGI (RPMI-8226 leukemia) greater than 100 µM, a TGI (IGROV1 ovarian) greater than 100 µM and a TGI (CCRF-CEM leukemia) greater than 100 µM. The TGI (UO-31 renal) was greater than 100 µM, the TGI (K-562 leukemia) was greater than 100 µM and the TGI (SF-539 CNS) was greater than 100 µM. The TGI (A549 NSCLC) was greater than 100 µM, the TGI (HCC-2998 colon) was greater than 100 µM and the TGI (SN12C renal) was greater than 100 µM. For the same compound, the TGI (UACC-257 melanoma) was greater than 100 µM, the TGI (OVCAR-8 ovarian) was greater than 100 µM and the TGI (SK-MEL-28 melanoma) was greater than 100 µM. For the same compound, the TGI (HCT-15 colon) was greater than 100 µM, the TGI (KM12 colon) was greater than 100 µM and the TGI (786-0 renal) was greater than 100 µM. The TGI (SF-268 CNS) was greater than 100 µM, the TGI (M19-MEL melanoma) was greater than 100 µM and the TGI (OVCAR-5 ovarian) was greater than 100 µM. The TGI (U251 CNS) was greater than 100 µM, the TGI (SNB-19 CNS) was greater than 100 µM and the TGI (HCT-116 colon) was greater than 100 µM. It also gave a TGI (HOP-18 NSCLC) of 0.0783 µM, a TGI (OVCAR-4 ovarian) greater than 100 µM and a TGI (KM20L2 colon) greater than 100 µM. For the same compound, the TGI (SK-OV-3 ovarian) was greater than 100 µM, the TGI (OVCAR-3 ovarian) was greater than 100 µM and the TGI (MOLT-4 leukemia) was greater than 100 µM. For the same compound, the TGI (SK-MEL-2 melanoma) was greater than 100 µM, the TGI (LXFL 529 NSCLC) was greater than 100 µM and the TGI (COLO 205 colon) was greater than 100 µM. The TGI (NCI-H460 lung) was greater than 100 µM, the TGI (HT29 colon) was greater than 100 µM and the TGI (SNB-75 CNS) was greater than 100 µM. It also gave a TGI (CAKI-1 renal) greater than 100 µM, a TGI (MALME-3M melanoma) greater than 100 µM and a TGI (TK-10 renal) greater than 100 µM. The TGI (SNB-78 CNS) was greater than 100 µM, the TGI (M14 melanoma) was greater than 100 µM and the TGI (LOX IMVI melanoma) was greater than 100 µM. For the same compound, the TGI (DMS 114 small cell lung) was greater than 100 µM, the TGI (SK-MEL-5 melanoma) was greater than 100 µM and the TGI (XF 498 CNS) was greater than 100 µM. It also gave a TGI (HOP-62 NSCLC) greater than 100 µM, a TGI (A498 renal) greater than 100 µM and a TGI (UACC-62 melanoma) greater than 100 µM. It also gave a TGI (SW-620 colon) greater than 100 µM, a TGI (SF-295 CNS) greater than 100 µM and a TGI (ACHN renal) greater than 100 µM. The TGI (EKVX NSCLC) was greater than 100 µM, the TGI (DLD-1 colon) was greater than 100 µM and the TGI (DMS 273 small cell lung) was greater than 100 µM.

With N#CC1CC(c2ccccc2)Nc2cc(Cl)ccc2N1 (centres undefined) the TGI (RPMI-8226 leukemia) was greater than 100 µM, the TGI (IGROV1 ovarian) was greater than 100 µM and the TGI (CCRF-CEM leukemia) was greater than 100 µM. For the same compound, the TGI (RXF 393 renal) was 98.7 µM, the TGI (UO-31 renal) was greater than 100 µM and the TGI (K-562 leukemia) was greater than 100 µM. For the same compound, the TGI (SF-539 CNS) was greater than 100 µM, the TGI (A549 NSCLC) was greater than 100 µM and the TGI (HCC-2998 colon) was greater than 100 µM. It also gave a TGI (SN12C renal) greater than 100 µM, a TGI (UACC-257 melanoma) greater than 100 µM and a TGI (OVCAR-8 ovarian) greater than 100 µM. It also gave a TGI (SK-MEL-28 melanoma) greater than 100 µM, a TGI (HCT-15 colon) greater than 100 µM and a TGI (KM12 colon) greater than 100 µM. For the same compound, the TGI (786-0 renal) was greater than 100 µM, the TGI (SR leukemia) was 59.8 µM and the TGI (SF-268 CNS) was greater than 100 µM. For the same compound, the TGI (M19-MEL melanoma) was greater than 100 µM, the TGI (OVCAR-5 ovarian) was greater than 100 µM and the TGI (NCI-H23 lung) was greater than 83.7 µM. For the same compound, the TGI (U251 CNS) was greater than 100 µM, the TGI (NCI-H226 lung) was greater than 100 µM and the TGI (SNB-19 CNS) was greater than 100 µM. It also gave a TGI (HCT-116 colon) greater than 100 µM, a TGI (HOP-18 NSCLC) greater than 100 µM and a TGI (OVCAR-4 ovarian) greater than 100 µM. The TGI (KM20L2 colon) was greater than 100 µM, the TGI (SK-OV-3 ovarian) was greater than 100 µM and the TGI (OVCAR-3 ovarian) was 57.1 µM. The TGI (NCI-H522 lung) was 21.7 µM, the TGI (MOLT-4 leukemia) was greater than 100 µM and the TGI (SK-MEL-2 melanoma) was greater than 89.2 µM. For the same compound, the TGI (LXFL 529 NSCLC) was greater than 100 µM, the TGI (COLO 205 colon) was greater than 83.4 µM and the TGI (NCI-H460 lung) was greater than 100 µM. The TGI (HT29 colon) was greater than 76.2 µM, the TGI (SNB-75 CNS) was greater than 100 µM and the TGI (CAKI-1 renal) was greater than 100 µM. For the same compound, the TGI (MALME-3M melanoma) was greater than 100 µM, the TGI (TK-10 renal) was greater than 100 µM and the TGI (SNB-78 CNS) was greater than 100 µM. It also gave a TGI (M14 melanoma) greater than 100 µM, a TGI (LOX IMVI melanoma) greater than 100 µM and a TGI (DMS 114 small cell lung) of 97.3 µM. The TGI (SK-MEL-5 melanoma) was greater than 100 µM, the TGI (XF 498 CNS) was 92 µM and the TGI (HL-60(TB) leukemia) was greater than 100 µM. The TGI (HOP-62 NSCLC) was greater than 100 µM, the TGI (A498 renal) was greater than 100 µM and the TGI (UACC-62 melanoma) was greater than 100 µM. For the same compound, the TGI (SW-620 colon) was greater than 100 µM, the TGI (SF-295 CNS) was greater than 100 µM and the TGI (ACHN renal) was greater than 100 µM. The TGI (EKVX NSCLC) was greater than 100 µM, the TGI (DLD-1 colon) was greater than 100 µM and the TGI (HOP-92 NSCLC) was greater than 100 µM. For the same compound, the TGI (DMS 273 small cell lung) was greater than 100 µM.
